One compound from patent US7935335B2, “Strains belonging to the genus Paenibacillus and method of controlling plant disease by using these strains or culture thereof” (Kaken Pharmaceutical Co., Ltd., priority 2004, dated 2011) can be followed below.

In assay [1] the test system is cucumber anthracnose fungus (Colletotrichum orbiculare). Put plainly: Test Example 1: control effect of a culture of each strain on cucumber anthracnose. The conditions noted are these: cucumber first true leaf; 20 ppm. In kind it is in vivo. Here is the method: Each of plastic pots was filled with horticultural compost and sown with cucumber (cultivar: Suyo), followed by growing in a greenhouse for 20 days. The cotyledon of the cucumber young seedling having a developed first true leaf was coated with 0.1 mL of whole culture of each of strains BS-0048, BS-0074, BS-0105 and BS-0277 prepared by the method described in Production Example 1. After the pots were allowed to stand in a glass house at 25° C. for 3 days, the plants were inoculated with a suspension of cucumber anthracnose fungus conidia in distilled water (Colletotrichum orbiculare, 1×10^6 spores/ml) by spraying. The pots were allowed to stand in a dark moist chamber at 25° C. for 24 hours and then in a glass house at 25° C. for 7 days to cause the disease. Lesions in the first true leaf of each seedling were counted and the protective value was calculated from the number of the lesions by the following equation to make a comparison with respect to control effect. Protective value={1−(number of lesions on treated plot/number of lesions on untreated plot)}×100

For assay [2] the test system is unchanged. Put plainly: Test Example 2: control effect of purified spores on cucumber anthracnose. In kind it is in vivo. Conditions: 20 ppm. The text has this: Each of plastic pots was filled with horticultural compost and sown with cucumber (cultivar: 15 Suyo), followed by growing in a greenhouse for 20 days. The cucumber young seedling having a developed second true leaf was subjected to foliage application treatment with a spore preparation sample of strain BS-0105 obtained by formulating the bacterium of the present invention produced by the method described in each of Production Examples 4, 5, 6 and 7, by the method described in Formulation Example 1, so that the proportion of cells might be 2×10^7 CFU/mL. After the pots were allowed to stand in a dark moist chamber at 25° C. for 24 hours and then in a glass house at 25° C. for 4 days, the plants were inoculated with a suspension of cucumber anthracnose fungus conidia in distilled water (Colletotrichum orbiculare, 1×10^6 spores/ml) by spraying. The pots were allowed to stand in a dark moist chamber at 25° C. for 24 hours and then in a glass house at 25° C. for 7 days to cause the disease. Lesions in each leaf were counted and the protective value was calculated from the number of the lesions by the following equation to make a comparison with respect to control effect. Protective value={1−(number of lesions on treated plot/number of lesions on untreated plot)}×100

In assay [3] the test system is strawberry anthracnose fungus (Glomerella cigulata). Put plainly: Test Example 4: control effect of purified spores on strawberry anthracnose. In kind it is in vivo. The conditions noted are these: 20 ppm. As to the method: Strawberry seedlings (cultivar: Akihime) cultivated in plastic pots and having about 10 developed leaflets were subjected to foliage application treatment with a spore preparation sample of strain BS-0105 obtained by formulating the bacterium of the present invention produced by the method described in Production Example 5, by the method described in Formulation Example 2, so that the proportion of cells might be 2×10^7 CFU/mL. After the pots were allowed to stand in a dark moist chamber at 25° C. for 24 hours and then in a glass house at 25° C. for 3 days (or 1 day in the case of Amister 20 flowable), the plants were inoculated with a suspension of strawberry anthracnose fungus conidia in distilled water (Glomerella cigulata, 2×10^6 spores/ml) by spraying. The pots were allowed to stand in a dark moist chamber at 25° C. for 24 hours and then in a glass house at 25° C. for 14 days to cause the disease. The disease severity was calculated by the following equation and the protective value was calculated from the disease severity values by the following equation to make a comparison with respect to control effect. […]

Assay [4] relates to Pseudomonas syringae pv. lachrymans. Put plainly: Test Example 5: control effect of a culture broth on melon bacterial blight. In kind it is in vivo. The conditions noted are these: foliar spray of 2 mL of 2 ppm solution. Here is the method:
Each of nursery trays was filled with Aisai No. 1 (mfd. by Katakura Chikkarin Co., Ltd.) and a melon (cultivar: Arles) seedling was raised in each tray. In this case, a seed treatment plot was prepared by immersing melon seeds in a Petri dish containing 10 mL (10^8 spores/mL) of the culture broth of strain BS-0105 prepared in Production Example 2, followed by bacterization at 30° C. for 2 hours. After the development of a cotyledon, the seedling was potted in a 12-cm polyethylene pot filled with Aisai No. 1. When three true leaves were completely developed, the following plots were prepared: plots on which drench or foliar spray, respectively, treatment with 1 mL ([…]) of the culture broth of strain BS-0105 prepared in Production Example 2 was carried out, and a plot on which foliar spray of 2 mL of a 2 ppm solution of Acibenzolar-S-methyl was carried out. As to the inoculation of the pathogenic bacterium (Pseudomonas syringae pv. lachrymans), 5 days after the treatment, a liquid containing the bacterial blight bacterium previously cultured on a potato semisynthetic medium (a decoction consisting of 300 g of potato and 1 L of distilled water, calcium nitrate tetrahydrate 0.5 g, disodium hydrogenphosphate dodecahydrate 2 g, peptone 5 g, sucrose 20 g, powdered agar 15 g) was inoculated on the whole of each leaf by spraying so that the reverse side of the leaf might be mainly treated. Inspection for infection was carried out by counting lesions in each of leaves from second to fourth leaves 8 days after the inoculation with the pathogenic bacterium. The protective value was calculated from the number of the lesions by the following equation to make a comparison with respect to control effect. Protective value={1−(number of lesions on treated plot/number of lesions on untreated plot)}×100

Assay [5] deals with parsley cultured cells. As to the kind of experiment: Activity of inducing disease resistance: elicitor responsiveness of parsley cultured cells, phytoalexin detection by fluorescence. In kind it is cell-based. The conditions noted are these: 2.5 μM. As to the method: The activity of inducing disease resistance in plant of compound 1 and compound 2 according to the present invention was also evaluated according to the method of Siegrist, J. et al. The results are shown in Table 9.
The activity of inducing disease resistance in plant of each of compound 1 and compound 2 was evaluated in the same manner as in Evaluation Example 1 by adopting the method practiced in Evaluation Example 1, i.e., the method in which the elicitor responsiveness of parsley cultured cells was measured by the detection of phytoalexin using fluorescence.
The activity of inducing resistance to plant diseases of each of compound 3 and compound 4 was evaluated in the same manner as in Evaluation Example 1 by adopting the method practiced in Evaluation Example 1, i.e., the method in which the elicitor responsiveness of parsley cultured cells was measured by the detection of phytoalexin using fluorescence.

Assay [6] has as its system parsley cultured cells. The description is as above. In kind it is cell-based. The conditions noted are these: Evaluation Example 1; elicitor treatment Yes; 2.5 μM.

For the compound `CSC(=O)c1cccc2nnsc12` [Acibenzolar-S-methyl, S-methyl 1,2,3-benzothiazole-7-carboxylate], in assay [1], the Number of lesions is on record as 5 and the Protective value was found to be 96.7. In assay [2], the “First true leaf Number of lesions per leaf” value was 0, the “First true leaf Protective value” is reported as 100, the “Second true leaf Number of lesions per leaf” value was 5.5 and the “Second true leaf Protective value” is on record as 99. For the same compound, in assay [3], the Disease severity is reported as 10.9 b and the Protective value was 85.1. Also, in assay [4], the “Protective value Average” value turned out to be 78.5, the “Protective value Fourth leaf” value is given as 66.7, the “Protective value Second leaf” value came to 100.0 and the “Protective value Third leaf” value came out at 68.8. Besides, the Relative fluorescence with parsley cultured cells [5] (Evaluation Example 6, elicitor treatment No) was found to be 86.9. Further, in the assay on parsley cultured cells [5] (Evaluation Example 6, elicitor treatment Yes), the Relative fluorescence amounted to 664.8. This compound also gave a Relative fluorescence with parsley cultured cells [5] (Evaluation Example 7, elicitor No) of 0.8. This compound registered a Relative fluorescence in the assay on parsley cultured cells [5] (Evaluation Example 7, elicitor Yes) of 377.5. Further, the Relative fluorescence with parsley cultured cells [6] worked out at 754.3.
